Source: ChEMBL document CHEMBL5465560, “Selectivity Literature for EUbOPEN Chemogenomic Library” (2024)
Blank lines part the entries; values can stand above or below the compound they belong to.

How the values were obtained:
Ephrin type-A receptor 4 = Ephrin type-A receptor 4 (Homo sapiens, UniProt P54764); test: Selectivity interaction (Kinase panel (Z-LYTE Assay)) EUB0001632a EPHA4; settings: at 10 µM
[1] = target: Tyrosine-protein kinase Srms (Homo sapiens) (UniProt Q9H3Y6); test: Selectivity interaction (SelectScreen profiling (Invitrogen)) EUB0000607a SRMS; settings: at 2 µM
Sequence of Tyrosine-protein kinase Srms (Homo sapiens) (Q9H3Y6 whole entry): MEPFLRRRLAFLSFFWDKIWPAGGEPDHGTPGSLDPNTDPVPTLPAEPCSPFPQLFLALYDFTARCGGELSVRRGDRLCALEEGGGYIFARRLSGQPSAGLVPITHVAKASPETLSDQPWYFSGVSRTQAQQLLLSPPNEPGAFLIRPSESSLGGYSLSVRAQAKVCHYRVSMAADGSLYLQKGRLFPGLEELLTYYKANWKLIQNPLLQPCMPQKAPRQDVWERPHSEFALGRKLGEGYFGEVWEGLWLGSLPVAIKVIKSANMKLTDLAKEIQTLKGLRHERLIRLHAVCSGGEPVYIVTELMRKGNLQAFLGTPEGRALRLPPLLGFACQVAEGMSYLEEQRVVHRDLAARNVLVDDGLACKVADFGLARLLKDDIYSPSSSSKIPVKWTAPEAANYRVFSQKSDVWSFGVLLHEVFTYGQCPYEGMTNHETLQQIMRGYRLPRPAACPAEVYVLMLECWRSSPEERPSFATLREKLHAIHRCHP

[2] = target: Serine/threonine-protein kinase 38-like (Homo sapiens) (UniProt Q9Y2H1); test: Selectivity interaction (ActivX KiNativ screen (kinase selectivity in THP-1 cell lysates)) EUB0000639a STK38L; format: subcellular; settings: lysate, at 0.04 µM
Sequence of Serine/threonine-protein kinase 38-like (Homo sapiens) (Q9Y2H1 2-464 limits assumed): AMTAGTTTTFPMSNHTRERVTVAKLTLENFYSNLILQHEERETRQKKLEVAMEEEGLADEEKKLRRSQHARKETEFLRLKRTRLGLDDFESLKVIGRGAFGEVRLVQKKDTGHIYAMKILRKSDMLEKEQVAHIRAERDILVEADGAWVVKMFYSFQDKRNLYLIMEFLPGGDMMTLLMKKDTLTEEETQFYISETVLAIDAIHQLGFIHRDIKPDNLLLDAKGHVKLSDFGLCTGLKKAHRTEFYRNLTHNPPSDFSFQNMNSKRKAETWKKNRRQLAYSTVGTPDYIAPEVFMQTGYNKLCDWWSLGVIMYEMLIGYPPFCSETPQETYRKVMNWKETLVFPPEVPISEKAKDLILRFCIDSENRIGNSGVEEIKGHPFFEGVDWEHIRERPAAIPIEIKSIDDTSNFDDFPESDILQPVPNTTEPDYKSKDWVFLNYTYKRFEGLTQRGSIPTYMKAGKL

[3] = target: T1, Serine/threonine-protein kinase 17A (Homo sapiens) (UniProt Q9UEE5); test: Selectivity interaction (ProQinase) EUB0000171b STK17A
T1 sequence (whole entry): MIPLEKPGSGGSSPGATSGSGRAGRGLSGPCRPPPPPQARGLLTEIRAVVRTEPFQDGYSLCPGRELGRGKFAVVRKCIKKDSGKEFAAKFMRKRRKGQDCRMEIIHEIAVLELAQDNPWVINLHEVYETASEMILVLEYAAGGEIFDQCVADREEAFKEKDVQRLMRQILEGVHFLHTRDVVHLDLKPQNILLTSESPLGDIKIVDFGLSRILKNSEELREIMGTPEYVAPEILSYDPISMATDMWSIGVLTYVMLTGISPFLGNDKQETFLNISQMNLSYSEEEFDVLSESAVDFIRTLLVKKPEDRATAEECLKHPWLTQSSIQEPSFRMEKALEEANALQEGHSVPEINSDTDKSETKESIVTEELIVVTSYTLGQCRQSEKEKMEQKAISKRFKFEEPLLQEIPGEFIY

[4] = target: T2, Protein kinase C iota type (Homo sapiens) (UniProt P41743); test: Selectivity interaction (KinomeScan (DiscoverX)) EUB0001049a PRKCI; settings: at 1 µM
T2 sequence (whole entry): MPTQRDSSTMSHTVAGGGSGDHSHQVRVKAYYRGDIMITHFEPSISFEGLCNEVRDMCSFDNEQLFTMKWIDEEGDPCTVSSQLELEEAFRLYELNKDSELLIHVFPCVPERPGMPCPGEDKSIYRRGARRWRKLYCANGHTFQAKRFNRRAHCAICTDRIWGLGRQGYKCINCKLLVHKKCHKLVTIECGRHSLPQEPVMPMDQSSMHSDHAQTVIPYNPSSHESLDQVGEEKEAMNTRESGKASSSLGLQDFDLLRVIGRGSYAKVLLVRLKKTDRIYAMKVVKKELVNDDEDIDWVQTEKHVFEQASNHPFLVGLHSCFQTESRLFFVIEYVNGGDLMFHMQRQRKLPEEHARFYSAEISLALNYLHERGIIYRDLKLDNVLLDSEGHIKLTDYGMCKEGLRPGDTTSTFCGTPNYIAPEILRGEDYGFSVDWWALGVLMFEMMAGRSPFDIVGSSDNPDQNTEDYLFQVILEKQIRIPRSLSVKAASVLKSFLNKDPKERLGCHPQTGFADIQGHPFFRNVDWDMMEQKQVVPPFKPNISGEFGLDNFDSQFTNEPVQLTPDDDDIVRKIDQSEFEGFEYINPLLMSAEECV

[5] = target: Fibroblast growth factor receptor 1 (Homo sapiens, UniProt P11362)
Sequence of Fibroblast growth factor receptor 1 (P11362 whole entry): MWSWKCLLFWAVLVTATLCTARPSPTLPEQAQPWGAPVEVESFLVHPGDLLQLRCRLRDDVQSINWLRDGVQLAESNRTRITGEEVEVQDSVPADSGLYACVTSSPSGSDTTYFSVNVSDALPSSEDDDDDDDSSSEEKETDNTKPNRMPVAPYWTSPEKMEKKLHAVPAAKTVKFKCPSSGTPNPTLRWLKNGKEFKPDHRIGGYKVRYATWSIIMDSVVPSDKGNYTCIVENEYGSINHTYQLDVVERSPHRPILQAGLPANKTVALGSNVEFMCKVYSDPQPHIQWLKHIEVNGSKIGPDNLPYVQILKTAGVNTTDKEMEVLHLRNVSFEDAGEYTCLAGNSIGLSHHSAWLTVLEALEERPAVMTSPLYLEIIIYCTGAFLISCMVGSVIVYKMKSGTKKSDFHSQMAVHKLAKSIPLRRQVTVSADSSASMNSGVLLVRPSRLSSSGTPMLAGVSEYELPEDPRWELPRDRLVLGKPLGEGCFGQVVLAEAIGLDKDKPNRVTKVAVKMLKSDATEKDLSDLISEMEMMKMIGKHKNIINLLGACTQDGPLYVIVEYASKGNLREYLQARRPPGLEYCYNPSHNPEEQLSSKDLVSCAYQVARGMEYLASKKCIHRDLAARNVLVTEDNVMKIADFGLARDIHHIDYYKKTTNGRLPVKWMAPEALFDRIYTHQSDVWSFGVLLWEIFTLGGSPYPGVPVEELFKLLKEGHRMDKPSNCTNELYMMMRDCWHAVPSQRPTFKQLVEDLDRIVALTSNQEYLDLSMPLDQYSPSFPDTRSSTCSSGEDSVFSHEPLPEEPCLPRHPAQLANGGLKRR

D(3) dopamine receptor = D(3) dopamine receptor (Homo sapiens, UniProt P35462); test: Selectivity interaction (GPCR panel (PDSP screen)) EUB0001079a DRD3; settings: at 10 µM
Sequence of D(3) dopamine receptor (P35462 whole entry): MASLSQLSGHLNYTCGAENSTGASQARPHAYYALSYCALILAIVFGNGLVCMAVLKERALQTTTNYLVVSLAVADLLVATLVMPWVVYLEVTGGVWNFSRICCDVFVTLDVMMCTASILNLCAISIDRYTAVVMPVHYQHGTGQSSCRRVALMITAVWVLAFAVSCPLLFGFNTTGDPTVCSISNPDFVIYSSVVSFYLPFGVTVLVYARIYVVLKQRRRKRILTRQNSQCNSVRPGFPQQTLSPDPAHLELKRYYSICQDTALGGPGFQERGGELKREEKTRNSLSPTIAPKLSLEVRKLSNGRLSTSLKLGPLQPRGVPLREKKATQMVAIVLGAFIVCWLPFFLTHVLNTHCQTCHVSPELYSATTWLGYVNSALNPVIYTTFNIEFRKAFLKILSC

[6] = target: Dual specificity testis-specific protein kinase 1 (Homo sapiens) (UniProt Q15569); test: Selectivity interaction (KinomeScan (DiscoverX)) EUB0001079a TESK1; settings: at 1 µM
[7] = target: Mitogen-activated protein kinase 7 (Homo sapiens) (UniProt Q13164); test: Selectivity interaction (ActivX KiNativ screen (ex vivo kinase selectivity in human PBMCs)) EUB0001619a MAPK7; format: cell-based; settings: PBMC, at 1 µM
Sequence of Mitogen-activated protein kinase 7 (Homo sapiens) (Q13164 2-816 limits assumed): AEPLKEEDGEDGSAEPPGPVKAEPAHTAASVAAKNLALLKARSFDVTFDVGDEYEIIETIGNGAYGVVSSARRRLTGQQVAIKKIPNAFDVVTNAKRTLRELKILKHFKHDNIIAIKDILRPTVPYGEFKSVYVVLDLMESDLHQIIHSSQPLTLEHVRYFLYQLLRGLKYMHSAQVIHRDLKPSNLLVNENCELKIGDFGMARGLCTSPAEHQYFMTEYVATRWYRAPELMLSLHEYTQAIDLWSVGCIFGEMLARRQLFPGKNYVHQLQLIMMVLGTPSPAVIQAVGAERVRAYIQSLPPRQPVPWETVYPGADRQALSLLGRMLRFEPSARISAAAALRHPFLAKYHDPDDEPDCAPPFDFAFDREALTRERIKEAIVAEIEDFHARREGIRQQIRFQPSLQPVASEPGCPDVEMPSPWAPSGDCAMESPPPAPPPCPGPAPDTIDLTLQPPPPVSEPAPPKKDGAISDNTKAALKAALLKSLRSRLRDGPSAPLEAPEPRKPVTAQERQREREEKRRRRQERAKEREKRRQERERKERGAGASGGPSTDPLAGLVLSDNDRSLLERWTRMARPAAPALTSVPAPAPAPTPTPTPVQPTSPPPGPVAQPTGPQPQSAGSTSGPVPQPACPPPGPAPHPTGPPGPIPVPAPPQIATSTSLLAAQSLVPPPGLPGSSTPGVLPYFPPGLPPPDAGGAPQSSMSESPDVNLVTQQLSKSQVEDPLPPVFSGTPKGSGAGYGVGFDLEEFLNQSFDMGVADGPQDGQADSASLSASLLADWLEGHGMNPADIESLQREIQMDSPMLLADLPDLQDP

[8] = target: T3, Myosin-IIIb (Homo sapiens) (UniProt Q8WXR4); test: Selectivity interaction (KinomeScan (DiscoverX)) EUB0001619a MYO3B; settings: at 1 µM
T3 sequence (whole entry): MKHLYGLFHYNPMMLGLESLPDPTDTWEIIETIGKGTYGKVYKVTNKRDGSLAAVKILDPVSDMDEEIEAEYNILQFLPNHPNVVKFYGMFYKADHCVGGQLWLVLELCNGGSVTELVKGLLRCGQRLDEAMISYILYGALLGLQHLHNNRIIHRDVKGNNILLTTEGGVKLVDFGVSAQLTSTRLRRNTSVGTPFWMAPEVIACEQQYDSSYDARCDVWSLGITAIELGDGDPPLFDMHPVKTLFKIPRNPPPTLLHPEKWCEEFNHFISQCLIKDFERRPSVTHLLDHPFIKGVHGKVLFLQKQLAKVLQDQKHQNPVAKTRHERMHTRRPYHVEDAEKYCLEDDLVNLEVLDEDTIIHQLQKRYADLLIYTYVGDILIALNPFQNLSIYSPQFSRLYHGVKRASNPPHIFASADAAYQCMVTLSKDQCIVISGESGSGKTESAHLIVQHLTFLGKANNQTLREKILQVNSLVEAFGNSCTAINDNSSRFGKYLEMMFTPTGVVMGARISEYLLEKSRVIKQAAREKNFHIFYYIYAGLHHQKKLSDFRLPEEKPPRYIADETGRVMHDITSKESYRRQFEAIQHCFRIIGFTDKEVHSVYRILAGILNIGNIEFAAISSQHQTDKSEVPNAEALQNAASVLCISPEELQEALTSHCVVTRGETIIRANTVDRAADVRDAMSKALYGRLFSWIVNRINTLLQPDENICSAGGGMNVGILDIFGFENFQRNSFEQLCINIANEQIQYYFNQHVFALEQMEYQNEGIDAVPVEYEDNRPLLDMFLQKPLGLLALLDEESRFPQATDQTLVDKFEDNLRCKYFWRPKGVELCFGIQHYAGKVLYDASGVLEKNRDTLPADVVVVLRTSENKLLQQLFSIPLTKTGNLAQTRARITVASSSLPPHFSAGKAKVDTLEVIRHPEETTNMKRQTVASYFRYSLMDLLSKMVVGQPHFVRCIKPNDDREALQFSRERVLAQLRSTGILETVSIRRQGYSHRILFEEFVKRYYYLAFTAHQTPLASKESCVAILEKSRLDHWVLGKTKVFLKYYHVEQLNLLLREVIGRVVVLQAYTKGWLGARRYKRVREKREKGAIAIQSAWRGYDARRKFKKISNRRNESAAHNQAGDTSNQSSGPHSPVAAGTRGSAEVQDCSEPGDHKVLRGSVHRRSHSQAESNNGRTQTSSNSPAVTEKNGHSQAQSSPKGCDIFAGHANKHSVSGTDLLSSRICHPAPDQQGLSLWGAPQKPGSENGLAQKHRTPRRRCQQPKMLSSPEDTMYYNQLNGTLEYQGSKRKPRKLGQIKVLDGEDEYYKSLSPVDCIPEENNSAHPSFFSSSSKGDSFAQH

[9] = target: Myosin light chain kinase 2, skeletal/cardiac muscle (Homo sapiens) (UniProt Q9H1R3); test: Selectivity interaction (KinomeScan (DiscoverX)) EUB0001619a MYLK2; settings: at 1 µM
Sequence of Myosin light chain kinase 2, skeletal/cardiac muscle (Homo sapiens) (Q9H1R3 whole entry): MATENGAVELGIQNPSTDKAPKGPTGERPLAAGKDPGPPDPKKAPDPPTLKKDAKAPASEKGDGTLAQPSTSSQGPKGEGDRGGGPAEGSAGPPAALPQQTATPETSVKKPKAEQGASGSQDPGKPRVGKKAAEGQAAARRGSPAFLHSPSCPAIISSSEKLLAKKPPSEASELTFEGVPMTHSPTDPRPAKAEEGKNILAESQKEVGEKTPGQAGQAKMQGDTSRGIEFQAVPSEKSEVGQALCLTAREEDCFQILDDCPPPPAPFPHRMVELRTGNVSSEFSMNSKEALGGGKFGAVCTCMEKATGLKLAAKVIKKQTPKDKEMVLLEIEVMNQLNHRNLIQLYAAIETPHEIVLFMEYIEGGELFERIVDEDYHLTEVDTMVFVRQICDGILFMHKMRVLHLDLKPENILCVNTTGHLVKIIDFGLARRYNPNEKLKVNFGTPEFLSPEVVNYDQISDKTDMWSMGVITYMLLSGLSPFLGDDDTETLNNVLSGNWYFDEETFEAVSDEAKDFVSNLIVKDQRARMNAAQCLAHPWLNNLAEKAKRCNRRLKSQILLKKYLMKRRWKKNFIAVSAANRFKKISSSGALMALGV

Sequence of Ephrin type-A receptor 4 (P54764 whole entry): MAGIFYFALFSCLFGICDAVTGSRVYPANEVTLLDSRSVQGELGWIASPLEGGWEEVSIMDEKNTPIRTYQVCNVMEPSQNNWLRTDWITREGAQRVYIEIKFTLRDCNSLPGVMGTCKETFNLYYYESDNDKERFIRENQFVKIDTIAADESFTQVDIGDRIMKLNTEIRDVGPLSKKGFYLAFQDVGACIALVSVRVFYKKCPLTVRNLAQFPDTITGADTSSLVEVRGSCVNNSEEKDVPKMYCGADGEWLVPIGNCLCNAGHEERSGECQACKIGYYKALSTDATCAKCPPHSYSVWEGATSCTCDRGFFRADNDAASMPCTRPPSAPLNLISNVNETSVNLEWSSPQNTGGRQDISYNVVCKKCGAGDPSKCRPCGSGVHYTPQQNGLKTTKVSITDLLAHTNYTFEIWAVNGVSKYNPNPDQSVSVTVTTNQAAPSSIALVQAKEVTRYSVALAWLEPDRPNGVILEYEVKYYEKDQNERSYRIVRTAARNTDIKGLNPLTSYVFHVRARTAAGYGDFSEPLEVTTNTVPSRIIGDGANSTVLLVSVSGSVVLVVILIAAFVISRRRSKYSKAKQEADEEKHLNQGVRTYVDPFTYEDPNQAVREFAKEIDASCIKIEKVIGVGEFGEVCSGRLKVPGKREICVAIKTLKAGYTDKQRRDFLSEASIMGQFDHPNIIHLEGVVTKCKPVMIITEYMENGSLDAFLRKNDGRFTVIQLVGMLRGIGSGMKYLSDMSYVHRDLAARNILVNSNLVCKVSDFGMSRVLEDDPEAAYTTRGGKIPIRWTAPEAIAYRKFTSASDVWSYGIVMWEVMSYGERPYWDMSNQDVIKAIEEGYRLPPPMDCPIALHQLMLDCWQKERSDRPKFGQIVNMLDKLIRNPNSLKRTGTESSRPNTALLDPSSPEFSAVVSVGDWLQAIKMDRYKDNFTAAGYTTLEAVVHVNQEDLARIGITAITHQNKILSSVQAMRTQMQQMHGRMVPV

- % of control (Ephrin type-A receptor 4): -5.33%
Compound: Cn1cc(-n2cnc3c(NCc4nc5cc(Cl)c(Cl)cc5[nH]4)nc(N4CCOCC4)nc32)cn1

- % of inhibition [2]: 7.6%
Compound: CC[C@@H]1[C@H](F)C(=O)N[C@@H]1COc1nccc2cc(C(N)=O)c(OC)cc12 [ZIMLOVISERTIB]

- % of control ([3]; at 1 µM): 78%
- % of control ([3]; at 5 µM): 35%
Compound: C=CC(=O)Nc1cccc(C(=O)Nc2ccc(Nc3cc(-c4[nH]c(SC)nc4C)ccn3)cc2)c1

- IC50 [5]: > 10 µM
Compound: CCc1cccc(CC)c1NC(=O)c1nn(C)c2c1CCc1cnc(Nc3ccc(C(=O)NC4CCN(C)CC4)cc3OC(F)(F)F)nc1-2

Continued, compound first:

Compound: CNC(=O)Nc1ccc(-c2nc(N3CC4CCC(C3)O4)c3cnn(C4CCC5(CC4)OCCO5)c3n2)cc1
- % of inhibition [1]: 7%

Compound: COc1cc(Nc2nc(C)cc(-c3cnn4nc(OC)ccc34)n2)cc(C(F)(F)F)c1
- % of control [4]: 79%

Compound: Nc1cnc(N2CCc3cc(S(=O)(=O)Nc4c(F)cc(Cl)cc4F)cc(N4CCCC4=O)c32)nc1 [TP-020n]
- % of inhibition (D(3) dopamine receptor): -5.02%
- % of control [6]: 100%

Compound: N#Cc1cccc(-c2c[nH]c3ncnc(N4CCOCC4)c23)c1
- % of inhibition [7]: -6%
- % of control [8]: 100%
- % of control [9]: 92%
